The values that follow come from patent US8148391B2 (Cephalon, Inc., priority 2006, dated 2012).

Assay [1] has as its target T1, baculovirus-expressed ALK (Homo sapiens, UniProt Q9UM73).
T1 construct: host or cells: baculovirus expression system
Briefly: ALK Kinase Assay (ELISA-type, time-resolved fluorescence). In kind it is biochemical. As to conditions: 1 μM ATP (Km level). In outline:
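Wells were coated with phospholipase C-γ at 10 μg/mL in Tris-buffered saline. Adding 30 ng/ml enzyme started the reaction, which ran at 37° C for 15 minutes before Eu-N1 PT66 antibody detection. Percent inhibition versus log10 concentration gave IC50 by variable-slope fit.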

Assay [2] has as its target T2, c-Met (cytoplasmic domain) (Homo sapiens, UniProt P08581).
T2 construct: 10 ng/mL c-Met (cytoplasmic domain, Invitrogen Corporation #PV3143); purchased Invitrogen Corporation PV3143
The assay is described as follows: c-Met Kinase Assay (same methods as for ALK, with modifications). In kind it is biochemical. As to conditions: 1 μM ATP (Km level). In outline:
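IC50 values were fitted by variable-slope sigmoidal regression of percent inhibition against log compound concentration. Phosphorylation was read with Eu-N1 PT66 antibody after a 15 min, 37 °C reaction. The reaction was initiated with 10 ng/mL c-Met cytoplasmic domain on wells coated with 10 μg/mL PLC-γ in TBS.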

[3] abbreviates: ALK kinase inhibition, read-out: ALK Activity.
[4] abbreviates: c-Met kinase inhibition, read-out: cMet Activity.
Setting [5] is: read-out: ALK Activity (ALK Kinase Inhibition, IC50).
[6] abbreviates: read-out: cMet Activity (c-Met Kinase Inhibition, IC50).
Where [7] appears, read: 30 ng/ml ALK, 37° C., 15 minutes, read-out: ALK Activity (ALK kinase inhibition, IC50 class).
Setting [8] is: 10 ng/mL c-Met, read-out: cMet Activity (c-Met kinase inhibition, IC50 class).

pIC50: −log10 of the molar value. Read-outs that look alike come from different tables or passages of the source. A value given as a limit tells only on which side of the number the result lay.

T2 sequence (P08581 956-1390 limits assumed): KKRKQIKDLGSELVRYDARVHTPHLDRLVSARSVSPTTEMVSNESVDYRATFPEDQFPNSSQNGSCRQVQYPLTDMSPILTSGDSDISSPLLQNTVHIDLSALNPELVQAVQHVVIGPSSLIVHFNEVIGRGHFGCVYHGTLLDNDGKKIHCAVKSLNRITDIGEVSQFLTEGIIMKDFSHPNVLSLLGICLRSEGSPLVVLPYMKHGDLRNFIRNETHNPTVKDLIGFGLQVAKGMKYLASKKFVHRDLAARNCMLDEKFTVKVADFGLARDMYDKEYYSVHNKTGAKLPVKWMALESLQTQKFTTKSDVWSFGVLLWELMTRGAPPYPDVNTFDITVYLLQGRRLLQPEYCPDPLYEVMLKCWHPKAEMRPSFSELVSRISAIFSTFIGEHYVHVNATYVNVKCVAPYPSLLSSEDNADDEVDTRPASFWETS
T1 sequence (Q9UM73 19-1620): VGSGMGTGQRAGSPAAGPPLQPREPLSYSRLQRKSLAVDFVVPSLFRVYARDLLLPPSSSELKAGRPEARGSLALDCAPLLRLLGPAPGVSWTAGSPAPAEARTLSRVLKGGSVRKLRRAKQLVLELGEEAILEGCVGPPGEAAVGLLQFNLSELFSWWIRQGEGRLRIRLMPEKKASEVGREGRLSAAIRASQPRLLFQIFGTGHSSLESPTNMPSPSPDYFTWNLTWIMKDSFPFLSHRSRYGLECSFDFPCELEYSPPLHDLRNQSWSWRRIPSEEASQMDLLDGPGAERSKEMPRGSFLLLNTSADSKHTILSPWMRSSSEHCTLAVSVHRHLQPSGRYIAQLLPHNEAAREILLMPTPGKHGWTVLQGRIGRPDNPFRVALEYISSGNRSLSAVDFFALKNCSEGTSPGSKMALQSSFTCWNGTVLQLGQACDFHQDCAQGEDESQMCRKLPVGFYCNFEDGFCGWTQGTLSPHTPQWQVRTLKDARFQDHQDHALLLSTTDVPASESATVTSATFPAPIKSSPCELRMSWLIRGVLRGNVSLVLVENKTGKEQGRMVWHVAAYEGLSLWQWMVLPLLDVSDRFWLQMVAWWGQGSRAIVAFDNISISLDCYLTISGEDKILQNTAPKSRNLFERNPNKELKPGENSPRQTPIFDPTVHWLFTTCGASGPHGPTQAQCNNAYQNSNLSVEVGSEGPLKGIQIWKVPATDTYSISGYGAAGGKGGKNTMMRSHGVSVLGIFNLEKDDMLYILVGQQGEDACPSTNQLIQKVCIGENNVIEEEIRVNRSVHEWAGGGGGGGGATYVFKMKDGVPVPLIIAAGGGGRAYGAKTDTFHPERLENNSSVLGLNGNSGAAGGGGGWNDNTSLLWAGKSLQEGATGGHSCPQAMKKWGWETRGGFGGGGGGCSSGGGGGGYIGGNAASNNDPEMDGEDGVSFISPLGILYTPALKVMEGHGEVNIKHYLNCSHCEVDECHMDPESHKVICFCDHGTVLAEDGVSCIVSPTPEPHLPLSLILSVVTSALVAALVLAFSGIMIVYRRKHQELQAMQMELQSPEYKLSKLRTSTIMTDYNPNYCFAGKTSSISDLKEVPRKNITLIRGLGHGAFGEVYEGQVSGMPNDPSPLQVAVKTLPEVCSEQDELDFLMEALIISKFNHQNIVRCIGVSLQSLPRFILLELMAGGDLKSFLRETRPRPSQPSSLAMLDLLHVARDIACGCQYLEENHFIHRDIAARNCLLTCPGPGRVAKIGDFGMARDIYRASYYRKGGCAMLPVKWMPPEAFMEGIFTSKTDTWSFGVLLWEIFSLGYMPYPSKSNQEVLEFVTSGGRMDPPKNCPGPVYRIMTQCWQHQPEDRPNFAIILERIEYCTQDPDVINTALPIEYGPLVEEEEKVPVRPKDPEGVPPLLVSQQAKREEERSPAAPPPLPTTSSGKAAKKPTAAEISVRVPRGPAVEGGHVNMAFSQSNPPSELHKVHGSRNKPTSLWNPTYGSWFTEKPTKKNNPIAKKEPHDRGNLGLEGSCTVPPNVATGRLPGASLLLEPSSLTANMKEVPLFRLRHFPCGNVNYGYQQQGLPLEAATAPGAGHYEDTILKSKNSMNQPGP

For `CNC(=O)c1ccccc1Nc1nc(Nc2ccc3c(c2)C(=O)NCCO3)ncc1Cl` [Example 1880, 2-[5-Chloro-2-(5-oxo-2,3,4,5-tetrahydro-benzo[f][1,4]oxazepin-7-ylamino)-pyrimidin-4-ylamino]-N-methyl-benzamide], the pIC50 in assay [1] (setting [3]) and in assay [2] (setting [4]) was above 7.00 throughout.
For the compound `CCN1C(=O)OCCc2ccc(Nc3ncc(Cl)c(Nc4ccccc4C(=O)NC)n3)cc21` [Example 1881, 2-[5-Chloro-2-(5-ethyl-6-oxo-5,6,8,9-tetrahydro-7-oxa-5-aza-benzocyclohepten-3-ylamino)-pyrimidin-4-ylamino]-N-methyl-benzamide], the pIC50 in assay [1] (setting [3]) and in assay [2] (setting [4]) was 6.00 to 7.00 throughout.
In the case of `CCN1C(=O)OCCc2ccc(Nc3ncc(Cl)c(Nc4c(F)cccc4C(=O)NC)n3)cc21` [Example 1882, 2-[5-Chloro-2-(5-ethyl-6-oxo-5,6,8,9-tetrahydro-7-oxa-5-aza-benzocyclohepten-3-ylamino)-pyrimidin-4-ylamino]-3-fluoro-N-methyl-benzamide], the pIC50 in assay [1] (setting [3]) and in assay [2] (setting [4]) was above 7.00 each time.
As to `CCN1C(=O)OCCc2ccc(Nc3ncc(Cl)c(Nc4ccsc4C(=O)NC)n3)cc21` [Example 1883, 3-[5-Chloro-2-(5-ethyl-6-oxo-5,6,8,9-tetrahydro-7-oxa-5-aza-benzocyclohepten-3-ylamino)-pyrimidin-4-ylamino]-thiophene-2-carboxylic acid methylamide], the pIC50 in assay [1] (setting [3]) and in assay [2] (setting [4]) was above 7.00 each time.
With “(1S,2S,3R,4R)-3-[2-(3-Carbamoylmethyl-8-methoxy-2,3,4,5-tetrahydro-1H-benzo[d]azepin-7-ylamino)-5-chloro-pyrimidin-4-ylamino]-bicyclo[2.2.1]hept-5-ene-2-carboxylic acid amide [Example 813]”, the pIC50 in assay [1] (setting [5]) was above 7.00; in assay [2] (setting [6]) it was below 5.00.
On the same counts, the results for “(1S,2S,3R,4R)-3-[5-Chloro-2-[4-cyclopropylmethyl-7-methoxy-2,3,4,5-tetrahydro-1H-benzo[e][1,4]diazepin-8-ylamino)-pyrimidin-4-ylamino]-bicyclo(2.2.1)hept-5-ene-2-carboxylic acid amide [Example 747]” are above 7.00 and below 5.00.
On the same counts, the results for “(1S,2S,3R,4R)-3-{5-Chloro-2-[6-(2-hydroxy-ethylamino)-1-methoxy-6,7,8,9-tetrahydro-5H-benzocyclohepten-2-ylamino]-pyrimidin-4-ylamino}-bicyclo[2.2.1]hept-5-ene-2-carboxylic acid amide [Example 960]” are above 7.00 and below 5.00.
On the same counts, the results for “(1S,2S,3R,4R)-3-{5-Chloro-2-[7-(2,2-difluoro-ethylamino)-6,7,8,9-tetrahydro-5H-benzocyclohepten-2-ylamino]-pyrimidin-4-ylamino}-bicyclo[2.2.1]hept-5-ene-2-carboxylic acid amide [Example 677]” are above 7.00 and below 5.00.
As to “(1S,2S,3R,4R)-3-{5-Chloro-2-[7-(4-methyl-piperazin-1-yl)-6,7,8,9-tetrahydro-5H-benzocyclohepten-2-ylamino]-pyrimidin-4-ylamino}-bicyclo[2.2.1]hept-5-ene-2-carboxylic acid amide [Example 893]”, the figures for the pIC50 in assay [1] (setting [5]) and in assay [2] (setting [6]) were above 7.00 and 6.00 to 7.00, respectively.
Regarding “(1S,2S,4R)-3-{5-Chloro-2-[3-(2-dimethylamino-acetylamino)-1-ethyl-6-methoxy-2-oxo-2,3,4,5-tetrahydro-1H-benzo[b]azepin-7-ylamino]-pyrimidin-4-ylamino}-bicyclo[2.2.1]hept-5-ene-2-carboxylic acid amide [Example 1353]”, the pIC50 in assay [1] (setting [7]) was above 7.00; in assay [2] (setting [8]), below 5.00.
For the compound “N-(2-{5-Chloro-2-[3-(2-methoxy-ethyl)-2,3,4,5-tetrahydro-1H-benzo[d]azepin-7-ylamino]-pyrimidin-4-ylamino}-phenyl)-methanesulfonamide [Example 37]”, the pIC50 in assay [1] (setting [3]) is above 7.00; in assay [2] (setting [4]), 5.00 to 6.00.
Taken in the same sequence, the figures for “N-(2-{5-Chloro-2-[3-methyl-5-oxo-1-(2,2,2-trifluoro-acetyl)-2,3,4,5-tetrahydro-1H-benzo[e][1,4]diazepin-6-ylamino]-pyrimidin-4-ylamino}-phenyl)-methanesulfonamide and N-(2-{5-Chloro-2-[2-methyl-5-oxo-1-(2,2,2-trifluoro-acetyl)-2,3,4,5-tetrahydro-1H-benzo[e][1,4]diazepin-6-ylamino]-pyrimidin-4-ylamino}-phenyl)-methanesulfonamide (Mixture of regioisomers) [Example 230]” were above 7.00 and 5.00 to 6.00.
Consider “N-((1R,2R)-2-{5-Chloro-2-[7-(2,2,2-trifluoro-ethylamino)-6,7,8,9-tetrahydro-5H-benzocyclohepten-2-ylamino]-pyrimidin-4-ylamino}-cyclohexyl)-methanesulfonamide [Example 676]”, for which the pIC50 in assay [1] (setting [5]) was above 7.00; in assay [2] (setting [6]), below 5.00.
Taken in the same sequence, the figures for “N-((1R,2R)-2-{5-Chloro-2-[7-(2,2,2-trifluoro-ethylamino)-6,7,8,9-tetrahydro-5H-benzocyclohepten-2-ylamino]-pyrimidin-4-ylamino}-cyclohexyl)-methanesulfonamide [Example 687]” were above 7.00 and below 5.00.
Taken in the same sequence, the figures for “N-((1R,2R)-2-{5-Chloro-2-[7-(2,2,2-trifluoro-ethylamino)-6,7,8,9-tetrahydro-5H-benzocyclohepten-2-ylamino]-pyrimidin-4-ylamino}-cyclohexyl)-methanesulfonamide [Example 688]” were 6.00 to 7.00 and below 5.00.
For “N-((1R,2R)-2-{5-Chloro-2-[7-(2,2-difluoro-ethylamino)-6,7,8,9-tetrahydro-5H-benzocyclohepten-2-ylamino]-pyrimidin-4-ylamino}-cyclohexyl)-methanesulfonamide [Example 675]”, the results for the pIC50 in assay [1] (setting [5]) and in assay [2] (setting [6]) were above 7.00 and below 5.00, respectively.
Consider “N-((1R,2R)-2-{5-Chloro-2-[(1R,8S)-10-(2,2,2-trifluoro-acetyl)-10-aza-tricyclo[6.3.2.0*2,7*]trideca-2,4,6-trien-4-ylamino]-pyrimidin-4-ylamino}-cyclohexyl)-methanesulfonamide and N-((1R,2R)-2-{5-Chloro-2-[(1S,8R)-10-(2,2,2-trifluoro-acetyl)-10-aza-tricyclo[6.3.2.0*2,7*]trideca-2,4,6-trien-4-ylamino]-pyrimidin-4-ylamino}-cyclohexyl)-methanesulfonamide [Example 345]”, for which the pIC50 in assay [1] (setting [3]) and in assay [2] (setting [4]) was above 7.00 throughout.
For the compound “N-{(1R,2R)-2-[2-(12-sec-Butyl-12-aza-tricyclo[7.2.1.0*2,7*]dodeca-2(7),3,5-trien-4-ylamino)-5-chloro-pyrimidin-4-ylamino]-cyclohexyl}-methanesulfonamide [Example 85]”, the values for the pIC50 in assay [1] (setting [3]) and in assay [2] (setting [4]) were above 7.00 and 6.00 to 7.00, respectively.
Take “{2-[2-(1-Acetyl-4-oxo-1,2,3,4,5,6-hexahydro-benzo[b][1,5]diazocin-8-ylamino)-5-chloro-pyrimidin-4-ylamino]-3-methyl-phenoxy}-acetonitrile [Example 1247]”: the pIC50 in assay [1] (setting [7]) was above 7.00; in assay [2] (setting [8]) it was 6.00 to 7.00.
